How the values were obtained:
[1] = test system: human primary astrocytes; assay: Induction of cellular antioxidants and phase 2 enzymes in human primary astrocytes; assay type: cell-based
[2] = test system: human cardiomyocytes; details: cited from earlier work
[3] = test system: human neuroblastoma SH-SY5Y cells; details: D3T-pretreatment of SH-SY5Y cells; cited from earlier work
[4] = test system: human neuroblastoma SH-SY5Y cells; assay: Induction of cellular antioxidants and phase 2 enzymes (GSH, NQO1, GCL) in SH-SY5Y cells; assay type: cell-based
[5] = test system: SH-SY5Y cells; assay: Protection of SH-SY5Y cells against neurotoxicant-elicited cytotoxicity; assay type: cell-based; details: human neuroblastoma SH-SY5Y cells
[6] = test system: human cardiomyocytes; assay: Protection of human cardiomyocytes from oxidative/electrophilic injury and doxorubicin toxicity; assay type: cell-based
[7] = test system: SH-SY5Y cells; details: D3T-pretreatment; dopamine, 6-hydroxydopamine, 4-hydroxy-2-nonenal, H2O2; cited from earlier work
[8] = test system: primary human cardiomyocytes; assay: Induction of antioxidants and phase 2 enzymes in human cardiomyocytes; assay type: cell-based
[9] = test system: primary human cardiomyocytes; details: cited from earlier work

S=c1ccss1 [D3T, 3H-1,2-dithiole-3-thione]
induction of cellular antioxidants including glutathione (GSH) and phase 2 enzymes [1]: able to induce
resistance to oxidative/electrophilic stress and doxorubicin toxicity [2]: increased resistance
induction of GSH, NQO1, and mitochondrial GSH [3]: induction
induction of glutathione (GSH) ([4]; SH-SY5Y cells): marked concentration- and time-dependent induction
protein and mRNA expression of gamma-glutamylcysteine ligase (GCL) ([4]; SH-SY5Y cells): increased
induction of cellular antioxidants and phase 2 enzymes ([4]; human neuronal cells (neuroblastoma SH-SY5Y cells)): capable of inducing
protection against acrolein-induced cytotoxicity [5]: dramatic protection
protection of cardiomyocytes from injury elicited by doxorubicin ([6]; doxorubicin): potently protected
protection of cardiomyocytes from injury caused by free radicals and electrophiles ([6]; wide range of free radicals and electrophiles): nearly complete protection
protection against the cytotoxicity elicited by neurotoxicants [7]: significant protection
induction of antioxidants in mitochondria ([8]; mitochondria of the human cardiomyocytes): potently induced
induction of a series of antioxidants ([8]; primary human cardiomyocytes, total cellular): potently induced
upregulation of antioxidants and phase 2 enzymes [9]: potently upregulated
